This is an account of results in BindingDB's records for PubMed 2885406 (University of California, 1987).

SMILES strings stand for the structures. Values joined by “and” are separate entries in the source; they are usually repeats but may differ in a detail not shown here. Equal entries are not always repeated.

A word on the Ki: it is the equilibrium dissociation constant of an inhibitor or competing ligand from its target. A lower Ki goes with tighter binding.

The assay has as its target T1, Alpha-2C adrenergic receptor (Rattus norvegicus, UniProt P22086).
T1 sequence (P22086 whole entry): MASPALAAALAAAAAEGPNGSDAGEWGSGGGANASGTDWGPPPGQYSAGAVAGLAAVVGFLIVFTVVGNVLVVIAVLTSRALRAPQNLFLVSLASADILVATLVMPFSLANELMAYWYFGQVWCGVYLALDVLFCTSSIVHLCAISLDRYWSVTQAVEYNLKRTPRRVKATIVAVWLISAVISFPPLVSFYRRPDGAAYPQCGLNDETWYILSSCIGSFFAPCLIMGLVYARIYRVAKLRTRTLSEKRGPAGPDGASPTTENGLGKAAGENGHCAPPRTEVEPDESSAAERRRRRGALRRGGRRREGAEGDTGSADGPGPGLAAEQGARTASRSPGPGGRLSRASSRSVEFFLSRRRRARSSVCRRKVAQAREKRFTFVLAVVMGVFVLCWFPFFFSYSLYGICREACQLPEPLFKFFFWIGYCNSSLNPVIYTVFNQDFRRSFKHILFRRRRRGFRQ
As for `NC(N)=NN=Cc1c(Cl)cccc1Cl` [Guanabenz], the Ki is 5.8 nM and 36.7 nM.
For `NCCc1c[nH]c2ccc(O)cc12` [[3H]-5-HT] the value was above 10000 nM; for `CCN1CCCC1CNC(=O)c1cc(S(N)(=O)=O)ccc1OC` (stereo not given) [N-[(1-ethylpyrrolidin-2-yl)methyl]-2-methoxy-5-sulfamoylbenzamide], 6120 nM and 682 nM.
The value for `C[C@H](N)Cc1ccccc1` [beta-aminopropylbenzene] was 992 nM and 2410 nM; that for `O=C(c1ccc(F)cc1)C1CCN(CCn2c(=O)[nH]c3ccccc3c2=O)CC1` [3-(2-{4-[(4-fluorophenyl)carbonyl]piperidin-1-yl}ethyl)-1,2,3,4-tetrahydroquinazoline-2,4-dione] was 2210 nM and 441 nM; that for `C=CCN1CCc2nc(N)sc2CC1` [B-HT 920] was 152 nM and 62.2 nM.
The value for `CC(C)(C)[C@]1(O)CCN2C[C@H]3c4ccccc4CCc4cccc(c43)[C@@H]2C1` was 220 nM and 107 nM; that for `COc1ccc(OC)c(C(O)C(C)N)c1` (stereo not given) was above 10000 nM.
On to `CN1Cc2c(N)cccc2[C@H](c2ccccc2)C1` [(+/-)-2-Methyl-4-phenyl-1,2,3,4-tetrahydro-isoquinolin-8-ylamine], for which the Ki is 8500 nM and 4990 nM.
The value for `NCCc1ccc(O)c(O)c1` was > 10000 nM and 9990 nM.
